Measurements from patent US20220110889A1, “R-KETAMINE AND DERIVATIVE THEREOF AS PROPHYLACTIC OR THERAPEUTIC AGENT FOR NEURODEV[…]” (National University Corporation Chiba University, priority 2018, published 2022).
“Also recorded” adds a separate entry of the source.

Columns and labels:
[1] = test system: mice treated with PCP serving as animal models of schizophrenia; assay: Novel object recognition test (NORT) in mice repeatedly administered with PCP (animal model of schizophrenia); type: in vivo; conditions: for cognitive function in NORT (ratio of time to find the novel object relative to time to find the two objects): male ICR mice, PCP 10 mg/kg s.c. for ten days, test drug 10 mg/kg intraperitoneally on days 15, 18, 22, 25, vs PCP+physiological saline
Protocol: The creation of model animals of a cognitive impairment of schizophrenia and drug administration were specifically carried out as described below (FIG. 1). For the mice, male ICR mice (8 weeks old, Japan SLC Inc., Hamamatsu, Japan) were purchased. The mice were allowed to freely ingest water and feed. On the first day of testing, physiological saline (10 mL/kg bodyweight) or PCP (10 mg/kg bodyweight) was subcutaneously administered once a day for ten days (from the first day of testing to the fifth day of testing and from the eighth day of testing to the twelfth day of testing: no administration on the sixth and seventh days of testing). On the fifteenth day of testing, the eighteenth day of testing, the twenty-second day of testing, and the twenty-fifth day of testing, R-ketamine (10 mg/kg bodyweight) or a medium (10 mL/kg of physiological saline) was intraperitoneally administered. […] The novel object recognition test (NORT: novel object recognition test) is a system used to evaluate cognitive functions. The NORT was carried out according to a previous report (Hashimoto et al. Eur. J. Pharmacol. 2005; 519 (1-2): 114-117). From the twenty-sixth day to the twenty-eighth day of testing, acclimation to a NORT apparatus (50.8×50.8×25.4 cm) was performed for 10 minutes per day. On the twenty-ninth day of testing, two objects of different shapes and colors were placed 35.5 cm apart in the NORT apparatus, and an amount of time to find each object was measured. A training session (10 minutes) was carried out, and on the following day, the thirtieth day of testing, a test session (5 minutes) was carried out (FIG. 1). In the test session on the following day, one object was replaced with another, new object (novel object). An amount of time to find the two objects was measured, and in the test session on the second day, a ratio of an amount of time to find the novel object relative to the amount of time to find the two objects was calculated. On the day following the end of behavior testing, a brain region (frontal cortex, hippocampus) of the mice was extracted, and the brain tissue was stored in a freezer. Brain-derived neurotrophic factor (BDNF: brain-derived neurotrophic factor); TrkB, which is a BDNF receptor; and phosphorylated TrkB in the brain tissue were quantified by western blotting (FIG. 3).
The effect of S-ketamine was examined according to the method above. On the first day of testing, physiological saline (10 mL/kg bodyweight) or PCP (10 mg/kg bodyweight) was subcutaneously administered once a day for ten days (from the first day of testing to the fifth day of testing and from the eighth day of testing to the twelfth day of testing: no administration on the sixth and seventh days of testing). […]

[2] = test system: BDNF-TrkB system; assay: Western blotting of BDNF, TrkB and phosphorylated TrkB in frontal cortex and hippocampus of PCP-treated mice; type: in vivo; conditions: R-ketamine 10 mg/kg i.p., brain extracted after behavior testing
Protocol: The creation of model animals of a cognitive impairment of schizophrenia and drug administration were specifically carried out as described below (FIG. 1). For the mice, male ICR mice (8 weeks old, Japan SLC Inc., Hamamatsu, Japan) were purchased. The mice were allowed to freely ingest water and feed. On the first day of testing, physiological saline (10 mL/kg bodyweight) or PCP (10 mg/kg bodyweight) was subcutaneously administered once a day for ten days (from the first day of testing to the fifth day of testing and from the eighth day of testing to the twelfth day of testing: no administration on the sixth and seventh days of testing). On the fifteenth day of testing, the eighteenth day of testing, the twenty-second day of testing, and the twenty-fifth day of testing, R-ketamine (10 mg/kg bodyweight) or a medium (10 mL/kg of physiological saline) was intraperitoneally administered. […] On the day following the end of behavior testing, a brain region (frontal cortex, hippocampus) of the mice was extracted, and the brain tissue was stored in a freezer. Brain-derived neurotrophic factor (BDNF: brain-derived neurotrophic factor); TrkB, which is a BDNF receptor; and phosphorylated TrkB in the brain tissue were quantified by western blotting (FIG. 3). […]

[3] = animal testing, non-patent literature 12 to 14; cited from earlier work
[4] = test system: baby mice (male) born from pregnant mice administered with Poly (I:C); assay: Novel object recognition test in offspring of pregnant mice administered with Poly (I:C) (maternal immune activation model); type: in vivo; conditions: male offspring of Poly (I:C) 5 mg/kg dams; R-ketamine 10 mg/kg i.p. twice a week, four weeks (weeks 4 to 8 after birth); NORT at 10 weeks old or thereafter
Protocol: The creation of model animals of a neurodevelopmental disorder such as schizophrenia or autism spectrum disorder (models of maternal immune activation) and drug administration were specifically carried out as described below (FIG. 5). For the mice, pregnant ddY mice (8 to 10 weeks old, Japan SLC Inc., Hamamatsu, Japan) were purchased. The mice were allowed to freely ingest water and feed. Physiological saline (5 mL/kg bodyweight) or Poly (I:C) (Sigma-Aldrich: 5 mg/kg bodyweight) was intraperitoneally administered for six days, from the twelfth day of pregnancy to the seventeenth day of pregnancy, according to previous reports (Han M, et al. Sci Rep 2016; 6:36087. Matsuura A, et al. Sci Rep 2018; 8: 2158. Ma M, et al. Proc Natl Acad Sci USA 2019; 116: 7083-7088). After birth, the mice were raised normally, and at 3 weeks old, only the male mice were weaned and raised. R-ketamine (10 mg/kg bodyweight) or a medium (10 mL/kg of physiological saline) was intraperitoneally administered twice a week for four weeks, from the fourth week after birth to the eighth week after birth. […] From 8 weeks old, these were raised normally. The above NORT was carried out at 10 weeks old or thereafter.
Statistical analysis was carried out by performing a one-way analysis of variance (one-way ANOVA) and subsequently performing Fisher's LSD (Fisher's LSD). […]

[5] = test system: NMDA receptors; conditions: non-patent literature 11; cited from earlier work

Row | Compound | effect of ANA-12 pretreatment on the therapeutic effect of R-ketamine in NORT ([1]; PCP-treated mice, ANA-12 0.5 mg/kg i.p. 30 minutes before R-ketamine 10 mg/kg i.p.) | BDNF protein expression in the frontal cortex and the hippocampus [2] | ratio p-TrkB/TrkB in the frontal cortex and the hippocampus [2] | side effects (such as drug dependency and an action of inducing a mental illness) compared to S-ketamine [3] | cognitive function in NORT, TrkB role study ([1]; PCP-treated mice, solvent 30 minutes before R-ketamine 10 mg/kg i.p. on days 15, 18, 22, 25) | cognitive function in NORT (ratio of time to find the novel object relative to time to find the two objects) [1] | cognitive impairment at maturity in NORT [4] | affinity toward NMDA receptors relative to R-ketamine [5]
1 | O=C(Nc1ccccc1C(=O)NC1CCCCNC1=O)c1cc2ccccc2s1 (stereo not drawn) [ANA-12, reference compound] | suppressed the therapeutic effect of R-ketamine | – | – | – | – | – | – | –
2 | CN[C@@]1(c2ccccc2Cl)CCCCC1=O [R-ketamine] | – | significantly improved | significantly improved | fewer side effects | significantly improved the reduced cognitive function due to PCP administration | significantly improved the reduced cognitive function due to PCP administration; also recorded: exhibits a therapeutic effect | suppressed a cognitive impairment at maturity | –
3 | CN[C@]1(c2ccccc2Cl)CCCCC1=O [S-ketamine, reference compound] | – | – | – | – | – | did not improve the reduced cognitive function due to PCP administration; also recorded: exhibited no therapeutic effect | – | stronger affinity toward NMDA receptors; also recorded: about four times higher than R-ketamine
